Results on 5 compounds are retold here after patent US20250049735A1, “MEDICINE FOR STEATOHEPATITIS” (The University of Tokyo, priority 2021, published 2025).

In one series the target is T1, ATP8B1+CDC50A (Homo sapiens, UniProt O43520).
T1 construct: expressed in transfected cells; host or cells: CHO-K1 cells (CCL-61, ATCC), transiently transfected with PEI MAX
T1 sequence (O43520 1-1251): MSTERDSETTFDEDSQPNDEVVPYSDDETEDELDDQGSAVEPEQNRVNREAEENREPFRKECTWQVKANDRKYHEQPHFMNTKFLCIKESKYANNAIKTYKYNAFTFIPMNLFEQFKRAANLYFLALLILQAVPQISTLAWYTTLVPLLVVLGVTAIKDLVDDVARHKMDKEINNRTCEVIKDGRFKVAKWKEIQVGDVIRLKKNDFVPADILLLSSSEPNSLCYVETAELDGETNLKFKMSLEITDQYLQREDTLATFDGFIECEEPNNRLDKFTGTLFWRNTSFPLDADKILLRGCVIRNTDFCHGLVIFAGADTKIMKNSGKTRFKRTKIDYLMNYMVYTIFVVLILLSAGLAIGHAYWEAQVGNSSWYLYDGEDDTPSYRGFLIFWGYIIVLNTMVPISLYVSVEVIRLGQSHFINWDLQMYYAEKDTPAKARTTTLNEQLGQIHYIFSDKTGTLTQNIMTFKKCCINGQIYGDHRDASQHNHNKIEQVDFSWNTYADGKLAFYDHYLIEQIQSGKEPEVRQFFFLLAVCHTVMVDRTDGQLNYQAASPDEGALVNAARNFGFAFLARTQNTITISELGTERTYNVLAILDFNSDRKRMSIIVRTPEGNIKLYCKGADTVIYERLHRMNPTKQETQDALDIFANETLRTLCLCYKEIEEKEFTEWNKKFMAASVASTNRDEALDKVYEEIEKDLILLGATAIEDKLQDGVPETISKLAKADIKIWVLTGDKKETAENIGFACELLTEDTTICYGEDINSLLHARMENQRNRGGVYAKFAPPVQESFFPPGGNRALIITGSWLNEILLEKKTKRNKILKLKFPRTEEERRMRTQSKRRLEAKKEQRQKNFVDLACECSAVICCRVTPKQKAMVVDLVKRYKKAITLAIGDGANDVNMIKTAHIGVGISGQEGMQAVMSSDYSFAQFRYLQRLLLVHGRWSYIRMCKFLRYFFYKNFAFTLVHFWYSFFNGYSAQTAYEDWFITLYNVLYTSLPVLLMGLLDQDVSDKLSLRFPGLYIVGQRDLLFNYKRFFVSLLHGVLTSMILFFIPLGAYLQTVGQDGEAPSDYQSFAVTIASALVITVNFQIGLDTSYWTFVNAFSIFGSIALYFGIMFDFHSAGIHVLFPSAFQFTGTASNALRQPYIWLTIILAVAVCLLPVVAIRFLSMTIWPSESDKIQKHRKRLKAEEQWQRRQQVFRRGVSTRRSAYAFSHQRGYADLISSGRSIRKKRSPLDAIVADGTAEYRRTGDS
T1 sequence (Q9NV96 1-361 partner): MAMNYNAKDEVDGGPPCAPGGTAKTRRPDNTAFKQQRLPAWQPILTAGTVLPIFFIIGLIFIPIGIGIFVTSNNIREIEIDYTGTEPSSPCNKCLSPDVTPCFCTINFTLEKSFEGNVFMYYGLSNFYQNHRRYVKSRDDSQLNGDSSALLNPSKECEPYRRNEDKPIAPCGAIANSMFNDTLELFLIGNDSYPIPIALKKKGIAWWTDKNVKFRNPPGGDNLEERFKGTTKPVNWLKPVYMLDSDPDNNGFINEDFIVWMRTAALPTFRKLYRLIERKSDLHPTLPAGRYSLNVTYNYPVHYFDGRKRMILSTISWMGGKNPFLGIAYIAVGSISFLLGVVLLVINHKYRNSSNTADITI
In words: Flippase (ATP8B1) assay: incorporation of NBD-phospholipids into CHO-K1 cells. It counts as cell-based. The following applies: 15° C. The protocol: The experiment regarding incorporation of NBD-phospholipids into cells was carried out according to the previous reports (Suzuki et al., Nature 468, 834-838 2010; Takatsu et al., J. Biol. Chem., 289:33543-33556 2014).
To allow CDC50A alone, or ATP8B1 and CDC50A, to express in CHO-K1 cells, the CHO-K1 cells (CCL-61, ATCC, Manassas, VA) were transfected with the plasmids (pShuttle-EV, or pShuttle-ATP8B1-FLAG and pShuttle-HA-CDC50A), using PEI MAX (Polysciences, Warrington, PA). Forty-eight hours after the transfection, the cells were detached from dishes and were collected in PBS containing 5 mM EDTA, and thereafter, the cells were recovered in a precipitate by centrifugation. The cells (2×10^6 cells/sample) were washed and were then equilibrated at 15° C. for 15 minutes in 500 μL of HBSS (14025092, Thermo Fisher Scientific). An equal volume of 1 μg/mL 18:1-06:0 NBD-PC (810132, Avanti Polar Lipids) or 10 μg/mL 12:0 LysoNBD-PC (810128P: Avanti Polar Lipids) was added to the cell suspension, and the obtained mixture was then incubated at 15° C. Thereafter, at each time point, 300 μL of a cell suspension was collected, and was mixed with 300 μl of HBSS (ice cold) containing 5% fatty acid-free BSA (A6003: Sigma-Aldrich) to extract NBD-lipids incorporated into the exoplasmic leaflet of the plasma membrane as well as unincorporated NBD-Lipids.
Next, 10,000 cells were analyzed with a BD FACSCelesta (BD Bioscience, San Jose, CA) to measure the fluorescence of NBD-lipids incorporated into the cytoplasmic leaflet of the plasma membrane. The mean value of the fluorescence intensities per cell was calculated. Propidium iodide (P378: DOJINDO, Kumamoto, Japan) positive cells were excluded from the analysis.

A further series has as its system Tax-iIEC-KO mice. The following applies: 8 to 10 weeks of age. From the text: Atp8b1^flox/flox mice were mated with villin-Cre/ERT2 transgenic mice (Stock No. 020282; The Jackson Laboratory), and Atp8b1^flox/+; villin-Cre/ERT2 mice in the obtained offsprings were then mated with Atp8b1^flox/flox mice to obtain Tamoxifen-induced, intestinal epithelial cell (IEC)-specific Atp8b1 knockout (Atp8b1Tax-iIEC-KO: Atp8b1^flox/flox; villin-Cre/ERT2) mice (Atp8b1 Tax-iIEC-KO mice). The resulting Atp8b1 Tax-iIEC-KO mice and littermate Atp8b1^flox/flox mice were used for animal experiments.
ALT and AST were determined by automatic measurement with Dri-chem (FUJIFILM, Tokyo, Japan).
The concentrations of choline, betaine, dimethylglycine (N,N-dimethylglycine) and glycerophosphorylcholine (sn-glycero-3-phosphocholine) in plasma were determined by liquid chromatography/tandem mass spectrometry (LC/MS/MS) assay. The sample was mixed with 98-fold volume of ethanol and 1-fold volume of the internal standard (IS) solution (10 μmol/L choline in water, 10 μmol/L glycerophosphorylcholine in water, and 1 μmol/L betaine in water). After vortex mixing, the sample was centrifuged at 21,500×g at 4° C. for 5 minutes. The obtained supernatant was injected into a UHPLC Nexera liquid chromatography system (Shimadzu co., Kyoto, Japan) equipped with an Ascentis Express HILIC column (2.1×50 mm, 2.7 μm, Merck KGaA, Darmstadt, Germany), and was then maintained at 4° C. The analyte was separated from the internal standard by gradient elution of mobile phase A (10 mmol/L ammonium acetate in water) and of mobile phase B (acetonitrile/water mixture) (99:1, v/v)). The gradient elution was carried out under the following conditions: 0-2 min., 82.5% B; 2-4 min., 82.5% to 5% B and 4-7 min. 5% B with a flow rate of 0.6 mL/min. The eluate was directly subjected to electrospray ionization under a positive ion mode using a 5500QTRAP mass spectrometer (Sciex pte. ltd., Toronto, Canada). All target molecules were scanned by selected reaction monitoring (SRM) mode.
Eight-week-old Tax-iIEC-KO mice and control mice were started to be orally administered with a normal saline, or with 50 mg/kg, 150 mg/kg or 500 mg/kg chloride choline, three times a day, and at the same time, the Tax-iIEC-KO mice and the control mice were administered with 1 mg/day of Tamoxifen for 5 consecutive days. Oral administration with a normal saline, or with 50 mg/kg, 150 mg/kg or 500 mg/kg chloride choline, three times a day, was continued, and thereafter, the mice were dissected at 10 weeks of age. The doses of 150 mg/kg and 500 mg/kg were determined by estimating the amount of choline consumed by the 0.3% choline supplemented diet group and the 1% choline supplemented diet group based on the daily food intake of mice.

For series [1] the following is noted: to such an extent that extension of autologous liver survival was expected; cited from earlier work.
Another series has as its system ATP8B1 KO Caco-2 cells. In words: Cytotoxicity test (LDH release) in ATP8B1 KO Caco-2 cells. The following applies: ATP8B1 KO Caco-2 cell line; 24 hours; various concentrations. As for the experimental part:
(§1) Caco-2 cells were cultured in DMEM (Dulbecco's modified Eagle's medium) (11995-065, Thermo Fisher Scientific) supplemented with 10% fetal bovine serum (10437, Thermo Fisher Scientific), 1% nonessential amino acids (11140-050, Thermo Fisher Scientific), 1% penicillin and streptomycin (15140-122, Thermo Fisher Scientific). The cells were cultured under conditions of 37° C., 5% CO2 and a humidity of 95%.
(§2) 5 mM Edelfosine dissolved in ethanol (CAY-60912-10, Cayman), 10 mg/mL lysophosphatidylcholine (LysoPC) dissolved in water/ethanol (1:1, v/v) (123-03781, FUJIFILM Wako Pure Chemical), and 10 mg/mL lysophosphatidylethanolamine (LysoPE) (L4754, Sigma-Aldrich) dissolved in ethanol were prepared as stock solutions. Caco-2 cells and ATP8B1 KO Caco-2 cells were seeded on 96-well plates at a cell density of 50,000 cells/well, and were then cultured, while replacing the medium with a fresh medium every 2 days. After 7 days of the culture, the cells were cultured for 24 hours in a new medium supplemented with various concentrations of edelfosine, lysophosphatidylcholine and lysophosphatidylethanolamine. Cytotoxicity was measured using, as an indicator, the amount of lactate dehydrogenase (LDH) released from the injured cells into the medium. The amount of LDH in the medium was measured using the Cytotoxicity LDH Assay Kit-WST (CK12, Dojindo) according to the instructions included therewith.
(In general: LDH leaks from cells whose membrane has failed.)

The next series deals with Caco-2 cells. In words: Cytotoxicity test (LDH release) in wild-type Caco-2 cells. The following applies: wild-type Caco-2 cell line; 24 hours; various concentrations. As for the experimental part: as §1, §2
Setting [2] is: CHO-K1 cells expressing functional ATP8B1 (ATP8B1+CDC50A).
[3] abbreviates: CHO-K1 cells without ATP8B1 expression (EV).
[4] abbreviates: oral 50 mg/kg three times a day.
Setting [5] is: oral 150 mg/kg three times a day.
The mark [6] stands for this setting: oral 500 mg/kg three times a day.

Read-outs that look alike come from different tables or passages of the source.

Regarding `C[N+](C)(C)CCOP(=O)([O-])OCC(O)COC(=O)CCCCCCCCCCCNc1ccc([N+](=O)[O-])c2nonc12` (stereo not shown) [NBD-LysoPC, 12:0 LysoNBD-PC], the entries for the “incorporation of NBD-lipid into the cells (flow cytometry)” value at ATP8B1+CDC50A (setting [2]) and at ATP8B1+CDC50A (setting [3]) were “incorporated into the cells” and “incorporated into the cells in reduced amounts”, respectively.
Regarding `C[N+](C)(C)CCO.[Cl-]` [chloride choline], in the series with Tax-iIEC-KO mice (setting [4]), the “body weight loss of the Tax-iIEC-KO mice” value is listed as “suppression”; the “concentration of betaine in the liver” value is recorded as “recovered up to the same level as those in the control mice”; the “concentration of choline in the liver” value is given as “recovered up to the same level as those in the control mice”; the “liver injury markers (AST and ALT)” value is given as “normalization”. Moreover, in the series with Tax-iIEC-KO mice (setting [5]), the “body weight loss of the Tax-iIEC-KO mice” value is given as “suppression”; the “concentration of betaine in the liver” value was “recovered up to the same level as those in the control mice”; the “concentration of choline in the liver” value is “recovered up to the same level as those in the control mice”; the “liver injury markers (AST and ALT)” value is reported as “normalization”. Moreover, in the series with Tax-iIEC-KO mice (setting [6]), the “body weight loss of the Tax-iIEC-KO mice” value is listed as “suppression”; the “concentration of betaine in the liver” value is recorded as “recovered up to the same level as those in the control mice”; the “concentration of choline in the liver” value is “recovered up to the same level as those in the control mice”; the “liver injury markers (AST and ALT)” value is reported as “normalization”.
On to 18:1-06:0 NBD-PC, for which the “incorporation of NBD-lipid into the cells (flow cytometry)” value is given as “incorporated into the cells” at ATP8B1+CDC50A (setting [2]) and “incorporated into the cells in reduced amounts” at ATP8B1+CDC50A (setting [3]).
As to sodium phenylbutyrate, the “therapeutic effects on PFIC1” value in series [1] was “did not exhibit therapeutic effects on PFIC1”.
As to lysophosphatidylcholine [LPC], the “cytotoxicity (LDH released into the medium)” value in the series with ATP8B1 KO Caco-2 cells is “increased cytotoxicity in a dose-dependent manner”; with Caco-2 cells it was “did not cause significant cytotoxicity”.
